Reference: ChEMBL document CHEMBL5233223, “Dammarane-type leads panaxadiol and protopanaxadiol for drug discovery: Biological activity and structural modification” (Eur J Med Chem, 2020)
≈ marks a conversion by molar mass, not a printed value.

Tests used:
HCT-116 [1] = assay: Antiproliferative activity against human HCT-116 cells assessed as cell growth inhibition at 200 uM relative to control; format: functional; parameters: scale not given: the % may be the effect or the level left
HCT-116 [2] = assay: Induction of apoptosis in human HCT-116 cells at 250 uM relative to control; format: functional
HCT-116 [3] = assay: Antiproliferative activity against human HCT-116 cells assessed as cell growth inhibition at 20 uM in presence of epicatechin at 150 uM relative to control; format: functional; parameters: scale not given: the % may be the effect or the level left
HCT-116 [4] = assay: Antiproliferative activity against human HCT-116 cells assessed as cell growth inhibition at 20 uM in presence of epicatechin at 200 uM relative to control; format: functional; parameters: scale not given: the % may be the effect or the level left
HCT-116 [5] = assay: Antiproliferative activity against human HCT-116 cells assessed as cell growth inhibition at 20 uM in presence of epicatechin at 250 uM relative to control; format: functional; parameters: scale not given: the % may be the effect or the level left
HCT-116 [6] = assay: Antiproliferative activity against human HCT-116 cells assessed as cell growth inhibition at 20 uM relative to control; format: functional; parameters: scale not given: the % may be the effect or the level left
HCT-116 [7] = assay: Induction of apoptosis in human HCT-116 cells at 20 uM in presence of epicatechin at 150 uM relative to control; format: functional
HCT-116 [8] = assay: Induction of apoptosis in human HCT-116 cells at 20 uM in presence of epicatechin at 200 uM relative to control; format: functional
HCT-116 [9] = assay: Induction of apoptosis in human HCT-116 cells at 20 uM in presence of epicatechin at 250 uM relative to control; format: functional
HCT-116 [10] = assay: Induction of apoptosis in human HCT-116 cells at 20 uM at 20 uM relative to control; format: functional
SK-HEP1 = assay: Antiproliferative activity against human SK-HEP1 cells assessed as cell growth inhibition measured after 24 hrs by [3H]thymidine incorporation assay; format: functional, cell-based
HeLa [11] = assay: Antiproliferative activity against human HeLa cells assessed as cell growth inhibition measured after 24 hrs by [3H]thymidine incorporation assay; format: functional, cell-based
Mus musculus = assay: In vivo radioprotective activity in gamma-irradiated ICR mouse assessed as inhibition of radiation-induced apoptosis frequency relative to control; format: functional; parameters: scale not given: the % may be the effect or the level left
HCT-116 [12] = assay: Induction of apoptosis in human HCT-116 cells at 30 uM by annexin V-FITC/propidium iodide staining based flow cytometry analysis relative to control; format: functional
HCT-116 [13] = assay: Antiproliferative activity against human HCT-116 cells at 10 uM incubated for 48 hrs in presence of PPD by MTS assay relative to control; format: functional
HCT-116 [14] = assay: Antiproliferative activity against human HCT-116 cells at 20 uM incubated for 48 hrs in presence of PPD by MTS assay relative to control; format: functional
HCT-116 [15] = assay: Induction of apoptosis in human HCT-116 cells at 30 uM in presence of PPD by annexin V-FITC/propidium iodide staining based flow cytometry analysis relative to control; format: functional
HCT-116 [16] = assay: Antiproliferative activity against human HCT-116 cells at 30 uM incubated for 48 hrs in presence of PPD by MTS assay relative to control; format: functional
HCT-116 [17] = assay: Antiproliferative activity against human HCT-116 cells at 10 uM incubated for 48 hrs by MTS assay relative to control; format: functional
HCT-116 [18] = assay: Antiproliferative activity against human HCT-116 cells at 20 uM incubated for 48 hrs by MTS assay relative to control; format: functional
HCT-116 [19] = assay: Antiproliferative activity against human HCT-116 cells at 30 uM incubated for 48 hrs by MTS assay relative to control; format: functional
Bacillus subtilis = assay: Antimicrobial activity against Bacillus subtilis assessed as bacterial growth inhibition; format: functional
Staphylococcus aureus = assay: Antimicrobial activity against Staphylococcus aureus USA300 assessed as bacterial growth inhibition; format: functional
[20] = biological target: 11-beta-hydroxysteroid dehydrogenase 1 (Homo sapiens, UniProt P28845); assay: Inhibition of human 11beta-HSD1
Chain of 11-beta-hydroxysteroid dehydrogenase 1 (Homo sapiens, UniProt P28845) (P28845 whole entry): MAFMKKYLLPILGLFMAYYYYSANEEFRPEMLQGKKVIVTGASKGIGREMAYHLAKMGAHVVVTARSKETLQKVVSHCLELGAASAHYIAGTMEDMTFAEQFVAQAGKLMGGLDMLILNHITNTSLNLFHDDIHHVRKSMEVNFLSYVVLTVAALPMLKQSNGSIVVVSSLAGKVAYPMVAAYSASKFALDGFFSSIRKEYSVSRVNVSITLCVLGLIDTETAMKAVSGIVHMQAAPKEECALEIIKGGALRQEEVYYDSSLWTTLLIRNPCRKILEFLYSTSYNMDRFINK

[21] = biological target: 11-beta-hydroxysteroid dehydrogenase 1 (Mus musculus, UniProt P50172); assay: Inhibition of mouse 11beta-HSD1
Chain of 11-beta-hydroxysteroid dehydrogenase 1 (Mus musculus, UniProt P50172) (P50172 whole entry): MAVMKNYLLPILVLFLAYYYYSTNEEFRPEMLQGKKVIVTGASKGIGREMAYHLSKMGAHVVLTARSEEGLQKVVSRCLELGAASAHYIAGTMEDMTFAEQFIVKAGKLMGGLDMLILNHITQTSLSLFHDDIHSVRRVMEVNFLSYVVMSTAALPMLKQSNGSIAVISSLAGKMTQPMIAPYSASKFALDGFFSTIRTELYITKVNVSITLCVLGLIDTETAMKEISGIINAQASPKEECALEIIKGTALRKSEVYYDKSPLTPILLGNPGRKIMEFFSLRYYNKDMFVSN

HeLa [22] = assay: Antiproliferative activity against human HeLa cells assessed as cell growth inhibition; format: functional, cell-based
HCT-116 [23] = assay: Antiproliferative activity against human HCT-116 cells assessed as cell growth inhibition by crystal violet staining based assay; format: functional
HCT-116 [24] = assay: Antiproliferative activity against human HCT-116 cells assessed as cell growth inhibition by crystal violet staining based assay relative to control; format: functional; parameters: scale not given: the % may be the effect or the level left
SW480 = assay: Antiproliferative activity against human SW480 cells assessed as cell growth inhibition by crystal violet staining based assay; format: functional
LNCaP [25] = assay: Antiproliferative activity against human LNCAP cells assessed as cell growth inhibition in presence of calcitriol; format: functional, cell-based
LNCaP C4-2 [26] = assay: Antiproliferative activity against human LNCaP C4-2 cells assessed as cell growth inhibition in presence of calcitriol; format: functional, cell-based
LNCaP C4-2 [27] = assay: Antiproliferative activity against human LNCaP C4-2 cells assessed as cell growth inhibition; format: functional, cell-based
LNCaP [28] = assay: Antiproliferative activity against human LNCAP cells assessed as cell growth inhibition; format: functional, cell-based
Estrogen receptor = Estrogen receptor (Homo sapiens, UniProt P03372); assay: Displacement of [3H]-17beta-estradiol to estrogen receptor (unknown origin)
Chain of Estrogen receptor (P03372 whole entry): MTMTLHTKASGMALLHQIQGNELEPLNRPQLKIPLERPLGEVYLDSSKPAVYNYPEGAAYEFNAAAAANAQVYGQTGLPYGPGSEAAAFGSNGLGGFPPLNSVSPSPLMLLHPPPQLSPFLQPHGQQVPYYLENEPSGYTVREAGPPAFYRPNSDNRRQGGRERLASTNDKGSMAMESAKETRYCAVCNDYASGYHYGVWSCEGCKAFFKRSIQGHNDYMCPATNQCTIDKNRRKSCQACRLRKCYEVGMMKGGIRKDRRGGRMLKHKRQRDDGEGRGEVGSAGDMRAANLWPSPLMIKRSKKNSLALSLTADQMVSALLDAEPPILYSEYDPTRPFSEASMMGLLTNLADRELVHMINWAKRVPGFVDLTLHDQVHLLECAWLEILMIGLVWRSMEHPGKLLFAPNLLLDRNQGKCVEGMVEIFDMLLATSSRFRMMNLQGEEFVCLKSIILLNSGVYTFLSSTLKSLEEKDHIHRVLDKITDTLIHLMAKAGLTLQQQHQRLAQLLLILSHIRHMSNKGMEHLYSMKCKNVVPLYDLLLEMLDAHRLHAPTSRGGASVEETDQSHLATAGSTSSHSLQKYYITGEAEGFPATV

HT-1080 = assay: Antiproliferative activity against human HT-1080 cells assessed as inhibition of cell proliferation; format: functional, cell-based
[29] = biological target: Stromelysin-1 (Homo sapiens) (UniProt P08254); assay: Inhibition of MMP-3 (unknown origin) at 5 uM
Chain of Stromelysin-1 (Homo sapiens) (P08254 100-477 limits assumed): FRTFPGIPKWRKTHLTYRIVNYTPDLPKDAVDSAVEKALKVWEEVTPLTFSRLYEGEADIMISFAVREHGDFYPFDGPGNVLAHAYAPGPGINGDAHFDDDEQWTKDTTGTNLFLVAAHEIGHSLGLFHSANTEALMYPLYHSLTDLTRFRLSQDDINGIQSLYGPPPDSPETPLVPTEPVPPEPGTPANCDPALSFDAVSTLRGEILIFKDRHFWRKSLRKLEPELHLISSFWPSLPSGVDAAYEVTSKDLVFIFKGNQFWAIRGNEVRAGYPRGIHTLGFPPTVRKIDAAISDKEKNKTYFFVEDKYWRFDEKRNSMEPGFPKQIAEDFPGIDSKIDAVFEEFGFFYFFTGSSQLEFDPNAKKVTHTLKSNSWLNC

[30] = biological target: Stromelysin-1 (Homo sapiens) (UniProt P08254); assay: Inhibition of MMP-3 (unknown origin) at 10 uM
SF-188 = assay: Antiproliferative activity against human SF-188 cells assessed as inhibition of cell proliferation; format: functional, cell-based
[31] = Antiproliferative activity against human U-87 MG cells assessed as inhibition of cell proliferation; format: functional, cell-based, U-87MG ATCC
Ishikawa = assay: Induction of autophagy in human Ishikawa cells assessed as ratio of LC3bII/LC3bI levels; format: functional
RL95-2 = assay: Induction of autophagy in human RL95-2 cells assessed as ratio of LC3bII/LC3bI levels; format: functional
REH = assay: Antiproliferative activity against human REH cells assessed as cell growth inhibition; format: functional, cell-based
RS4-11 = assay: Antiproliferative activity against human RS4-11 cells assessed as cell growth inhibition; format: functional, cell-based
[32] = Cytotoxicity against human PBMC assessed as cell growth inhibition; format: toxicity, cell-based; details: PBMC (peripheral blood mononuclear cells)
[33] = Antiproliferative activity against human Ectopic endometrial stromal cell assessed as cell growth inhibition; format: functional, cell-based
HepG2 2.2.15 = assay: Antiproliferative activity against human HepG2.2.15 cells assessed as cell growth inhibition; format: functional, cell-based
PC-3 = assay: Antiproliferative activity against human PC-3 cells assessed as cell growth inhibition; format: functional, cell-based

Oc1cc(O)c2c(c1)O[C@H](c1ccc(O)c(O)c1)[C@H](O)C2 [(-)-EPICATECHIN]
Activity (HCT-116 [1]): 17%
Activity (HCT-116 [2]): 9.4%

CC1(C)CCC[C@](C)(C2CC[C@]3(C)C2[C@H](O)CC2[C@@]4(C)CC[C@H](O)C(C)(C)C4CC[C@]23C)O1 (some centres not stated)
Activity (HCT-116 [3]): 50.7%
Activity (HCT-116 [4]): 97.2%
Activity (HCT-116 [5]): 94.7%
Activity (HCT-116 [6]): 28.7%
Activity (HCT-116 [7]): 11.9%
Activity (HCT-116 [8]): 16.6%
Activity (HCT-116 [9]): 25.8%
Activity (HCT-116 [10]): 7.2%
IC50 (SK-HEP1): 0.8 µM
IC50 (HeLa [11]): 1.2 µM
Activity (Mus musculus): 29.5%

O=c1[nH]cc(F)c(=O)[nH]1 [FLUOROURACIL]
Activity (HCT-116 [12]): 5%
Activity (HCT-116 [13]): 13.8%
Activity (HCT-116 [14]): 27.4%
Activity (HCT-116 [15]): 28.8%
Activity (HCT-116 [16]): 49.4%
Activity (HCT-116 [17]): 5.7%
Activity (HCT-116 [18]): 20.2%
Activity (HCT-116 [19]): 30.1%

CC(C)(O)[C@@H]1CC[C@@](C)([C@H]2CC[C@]3(C)C2[C@H](O)CC2[C@@]4(C)CC[C@H](OC(=O)C5CCNCC5)C(C)(C)C4CC[C@]23C)O1 (some centres not stated)
MIC (Bacillus subtilis): 2 µg/mL (≈ 3.4 µM)
MIC (Staphylococcus aureus): 168 µg/mL (≈ 286 µM)

CO[C@H]1CC(=O)[C@]2(C)C1[C@H](OC(C)=O)CC1[C@@]3(C)CC[C@H](O)C(C)(C)C3CC[C@]12C (some centres not stated)
IC50 [20]: 0.044 µM
IC50 [21]: 0.41 µM

CC(C)(O)[C@H]1CC[C@@](C)([C@H]2CC[C@]3(C)C2[C@H](O)CC2[C@@]4(C)CC[C@H](O)C(C)(C)C4CC[C@]23C)O1 (some centres not stated)
IC50 (HeLa [22]): 4.58 µM

CC(C)=CCC[C@](C)(O)C1CC[C@]2(C)C1[C@H](O)CC1[C@@]3(C)CC[C@H](O)C(C)(C)C3CC[C@]12C (some centres not stated)
IC50 (HCT-116 [23]): 4.69 µM
Activity (HCT-116 [24]): <30%
IC50 (SW480): 8.99 µM
IC50 (LNCaP [25]): 53 µM
IC50 (LNCaP C4-2 [26]): 23 µM
IC50 (LNCaP C4-2 [27]): 13 µM
IC50 (LNCaP [28]): 41 µM
IC50 (Estrogen receptor): 26.3 µM
IC50 (HT-1080): 76.8 µM
inhibition [29]: 40.3%
inhibition [30]: 68.6%
IC50 (SF-188): 24 µM
IC50 [31]: 38 µM
Ratio (Ishikawa): 0.91
Ratio (RL95-2): 1.93
IC50 (REH): 24.4 µM
IC50 (RS4-11): 27.2 µM
IC50 [32]: 116 µM
IC50 [33]: 30.6 µM

CC1(C)CCC[C@](C)(C2CC[C@]3(C)C2[C@H](O)CC2[C@@]4(C)CC[C@H](OC(=O)CCCC(=O)O)C(C)(C)C4CC[C@]23C)O1 (some centres not stated)
IC50 (HepG2 2.2.15): 7.27 µM

CC1(C)CCC[C@](C)(C2CC[C@]3(C)C2[C@H](O)CC2[C@@]4(C)C/C(=C/c5cccs5)C(=O)C(C)(C)C4CC[C@]23C)O1 (some centres not stated)
IC50 (LNCaP [28]): < 38.9 µM
IC50 (PC-3): 47.3 µM

CC(=O)O[C@@H]1CC2[C@@]3(C)CC[C@H](O)C(C)(C)C3CC[C@@]2(C)[C@]2(C)C(=O)C=CC12 (some centres not stated)
IC50 [20]: 0.034 µM

CC1(C)CCC[C@](C)(C2CC[C@]3(C)C2[C@H](O)CC2[C@@]4(C)C/C(=C/c5ccc(C(F)(F)F)cc5)C(=O)C(C)(C)C4CC[C@]23C)O1 (some centres not stated)
IC50 (LNCaP [28]): < 38.9 µM
IC50 (PC-3): 35.4 µM

COc1ccc(/C=C2/C[C@@]3(C)C(CC[C@]4(C)C3C[C@@H](O)C3C([C@@]5(C)CCCC(C)(C)O5)CC[C@]34C)C(C)(C)C2=O)cc1 (some centres not stated)
IC50 (PC-3): 39.4 µM
